Measured values from US7803801B2, “Aminopyridine compounds having Syk inhibitory activity” (Japan Tobacco, Inc., priority 2005, dated 2010).

Assays:
[1] = target: GST-Syk Full Protein (human) (Homo sapiens, UniProt P43405); experiment: Syk kinase inhibition test (HTRF method); type: biochemical; details: HTRF, 100 μM ATP, 30 min room temperature, average; read-out: sykHTRF ave IC50
Method in brief: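 HTRF read-out: after EDTA termination and 1 h with XL665-streptavidin and Eu-anti-phosphotyrosine, the 665/620 nm ratio was measured. The reaction ran 30 min at 20–25 °C with final 6.4 nM human GST-Syk, 250 nM biotinylated peptide, 100 μM ATP, pH 7.0 HEPES buffer, 2% DMSO.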

[2] = tested on: cultured human mast cells; experiment: Degranulation inhibition test using cultured human mast cells (IgE cross-linking, β-Hexosaminidase release); type: cell-based; details: Mast cell; cultured human mast cells, anti-hIgE stimulation, β-Hexosaminidase index, average; read-out: human degranulation ave. IC50
Method in brief: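 Degranulation was triggered by anti-hIgE (10 μg/mL final, 30 min, 37 °C) after a 10-min compound pretreatment (DMSO 0.1%) of cord-blood CD34+-derived mast cells primed 5 days with IL-4 and IgE. β-Hexosaminidase in supernatant was measured with p-nitrophenyl-GlcNAc substrate (A405), expressed against water-lysed total; IC50 (M).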

| Compound | IC50 [1] | IC50 [2] |
| --- | --- | --- |
| Cc1ccnc(Nc2cccc(-c3cnc(CNS(C)(=O)=O)s3)n2)c1 [Compound A-200, N-{5-[6-(4-methylpyridin-2-ylamino)pyridin-2-yl]thiazol-2-ylmethyl}methanesulfonamide] | < 100 nM | 100 to 1000 nM |
| Cc1ccnc(Nc2cccc(-c3cnc(CNC(=O)CO)s3)n2)c1 [Compound A-201] | 100 to 1000 nM | 100 to 1000 nM |
| CC(=O)N[C@H]1CC[C@H](c2ncc(-c3cccc(Nc4cc(C)ccn4)n3)s2)CC1 [Compound A-202, N-(trans-4-{5-[6-(4-methylpyridin-2-ylamino)pyridin-2-yl]thiazol-2-yl}cyclohexyl)acetamide] | < 100 nM | > 1000 nM |
| COC(=O)[C@H]1CC[C@H](c2ncc(-c3cccc(Nc4cc(Cl)ccn4)n3)s2)CC1 [Compound A-203] | 100 to 1000 nM | 100 to 1000 nM |
| O=C(O)[C@H]1CC[C@H](c2ncc(-c3cccc(Nc4cc(Cl)ccn4)n3)s2)CC1 [Compound A-204, trans-4-{5-[6-(4-chloropyridin-2-ylamino)pyridin-2-yl]thiazol-2-yl}cyclohexanecarboxylic acid] | < 100 nM | 100 to 1000 nM |
| Cc1ccnc(Nc2cccc(-c3cnc(CCO)s3)n2)c1 [Compound A-205, 2-{5-[6-(4-methylpyridin-2-ylamino)pyridin-2-yl]thiazol-2-yl}ethanol] | < 100 nM | 100 to 1000 nM |
| Cc1ccnc(Nc2cccc(-c3cnc(COC(=O)NC[C@H]4CC[C@H](C(=O)O)CC4)s3)n2)c1 [Compound A-206] | > 1000 nM | > 1000 nM |
| Cc1ccnc(Nc2cccc(-c3cnc(CNC[C@H]4CC[C@H](C(=O)O)CC4)s3)n2)c1 [Compound A-207] | 100 to 1000 nM | > 1000 nM |
| Cc1ccnc(Nc2cccc(-c3cnc(CNC[C@H]4CC[C@H](CO)CC4)s3)n2)c1 [Compound A-208] | 100 to 1000 nM | > 1000 nM |
| Cc1ccnc(Nc2cccc(-c3cnc(CN4CCN(C)CC4)s3)n2)c1 [Compound A-209] | 100 to 1000 nM | > 1000 nM |
| CC(=O)NC1CCN(Cc2ncc(-c3cccc(Nc4cc(C)ccn4)n3)s2)CC1 [Compound A-210] | > 1000 nM | > 1000 nM |
| Cc1ccnc(Nc2cccc(-c3cnc([C@H]4CC[C@H](CO)CC4)s3)n2)c1 [Compound A-211, (trans-4-{5-[6-(4-methylpyridin-2-ylamino)pyridin-2-yl]thiazol-2-yl}cyclohexyl)methanol] | < 100 nM | 100 to 1000 nM |
| CC(=O)N[C@@H](C)c1ncc(-c2cccc(Nc3cc(C(C)=O)ccn3)n2)s1 [Compound A-212] | 100 to 1000 nM | 100 to 1000 nM |
| COC(=O)[C@H]1CC[C@H](c2ncc(-c3cccc(Nc4cc5ccccc5cn4)n3)s2)CC1 [Compound A-213] | > 1000 nM | 100 to 1000 nM |
| COc1ccc(NCc2ncc(-c3cccc(Nc4cc(C)ccn4)n3)s2)cc1 [Compound A-214] | 100 to 1000 nM | > 1000 nM |
| O=C(O)[C@H]1CC[C@H](c2ncc(-c3cccc(Nc4cc5ccccc5cn4)n3)s2)CC1 [Compound A-215, trans-4-{5-[6-(isoquinolin-3-ylamino)pyridin-2-yl]thiazol-2-yl}cyclohexanecarboxylic acid] | < 100 nM | 100 to 1000 nM |
| Cc1ccnc(Nc2cccc(-c3cnc(CNCCO)s3)n2)c1 [Compound A-216] | 100 to 1000 nM | > 1000 nM |
| Cc1ccnc(Nc2cccc(-c3cnc(CN4CCN(CCO)CC4)s3)n2)c1 [Compound A-217] | 100 to 1000 nM | > 1000 nM |
| Cc1ccnc(Nc2cccc(-c3cnc(CCc4ccc(N)cc4)s3)n2)c1 [Compound A-218] | 100 to 1000 nM | 100 to 1000 nM |

| Compound | IC50 [1] | IC50 [2] |
| --- | --- | --- |
| Cc1ccnc(Nc2cccc(-c3cnc([C@H]4CC[C@H](CN)CC4)s3)n2)c1 [Compound A-219, trans-4-{5-[6-(4-methylpyridin-2-ylamino)pyridin-2-yl]thiazol-2-yl}cyclohexylmethylamine] | < 100 nM | > 1000 nM |
| CC(=O)Nc1ccc(CCc2ncc(-c3cccc(Nc4cc(C)ccn4)n3)s2)cc1 [Compound A-220] | 100 to 1000 nM | 100 to 1000 nM |
| Cc1ccnc(Nc2cccc(-c3cnc(CCc4ccc(NS(C)(=O)=O)cc4)s3)n2)c1 [Compound A-221] | 100 to 1000 nM | > 1000 nM |
| Cc1ccnc(Nc2cccc(-c3cnc(CC(=O)OC(C)(C)C)s3)n2)c1 [Compound A-222] | 100 to 1000 nM | > 1000 nM |
| Cc1ccnc(Nc2cccc(-c3cnc(CCc4ccc(C(=O)N5C[C@@H](O)[C@@H](O)C5)cc4)s3)n2)c1 [Compound A-223, ((3R,4S)-3,4-dihydroxypyrrolidin-1-yl)-[4-(2-{5-[6-(4-methylpyridin-2-ylamino)pyridin-2-yl]thiazol-2-yl}ethyl)phenyl]methanone] | < 100 nM | 100 to 1000 nM |
| Cc1ccnc(Nc2cccc(-c3cnc(Cc4ccc(C(=O)O)cc4)s3)n2)c1 [Compound A-224] | 100 to 1000 nM | > 1000 nM |
| Cc1ccnc(Nc2cccc(-c3cnc([C@H]4CC[C@H](C(=O)N5CC[C@H](O)[C@@H](O)C5)CC4)s3)n2)c1 [Compound A-225] | 100 to 1000 nM | 100 to 1000 nM |
| Cc1ccnc(Nc2cccc(-c3cnc([C@H]4CC[C@H](C(=O)N5C[C@H](O)C[C@@H](O)C5)CC4)s3)n2)c1 [Compound A-226] | 100 to 1000 nM | 100 to 1000 nM |
| Cc1ccnc(Nc2cccc(-c3cnc([C@H]4CC[C@H](C(=O)N5C[C@H](O)C[C@H](O)C5)CC4)s3)n2)c1 [Compound A-227] | 100 to 1000 nM | 100 to 1000 nM |
| CC(=O)NC[C@H]1CC[C@H](c2ncc(-c3cccc(Nc4cc(C)ccn4)n3)s2)CC1 [Compound A-228, N-(trans-4-{5-[6-(4-methylpyridin-2-ylamino)pyridin-2-yl]thiazol-2-yl}cyclohexylmethyl)acetamide] | < 100 nM | 100 to 1000 nM |
| Cc1ccnc(Nc2cccc(-c3cnc([C@H]4CC[C@H](CNS(C)(=O)=O)CC4)s3)n2)c1 [Compound A-229, N-(trans-4-{5-[6-(4-methylpyridin-2-ylamino)pyridin-2-yl]thiazol-2-yl}cyclohexylmethyl)methanesulfonamide] | < 100 nM | 100 to 1000 nM |
| Cc1ccnc(Nc2cccc(-c3cnc(CC(=O)N4CCC(O)CC4)s3)n2)c1 [Compound A-230] | 100 to 1000 nM | > 1000 nM |
| Cc1ccnc(Nc2cccc(-c3cnc(C)s3)n2)c1 [Compound A-231] | 100 to 1000 nM | 100 to 1000 nM |
| Cc1ccnc(Nc2cccc(-c3cnc(Cc4cccs4)s3)n2)c1 [Compound A-232] | 100 to 1000 nM | > 1000 nM |
| Cc1ccnc(Nc2cccc(-c3cnc(CCc4ccc(C(=O)N5CCC(O)CC5)cc4)s3)n2)c1 [Compound A-233] | 100 to 1000 nM | 100 to 1000 nM |
| Cc1ccnc(Nc2cccc(-c3cnc(Cc4ccc(C(=O)N5CCC(O)CC5)cc4)s3)n2)c1 [Compound A-234] | > 1000 nM | > 1000 nM |
| Cc1ccnc(Nc2cccc(-c3cnc([C@H]4CC[C@H](CNC(=O)CO)CC4)s3)n2)c1 [Compound A-235, 2-hydroxy-N-(trans-4-{5-[6-(4-methylpyridin-2-ylamino)pyridin-2-yl]thiazol-2-yl}cyclohexylmethyl)acetamide] | < 100 nM | 100 to 1000 nM |
| Cc1ccnc(Nc2cccc(-c3cnc(CN4CCC(NS(C)(=O)=O)CC4)s3)n2)c1 [Compound A-236] | 100 to 1000 nM | 100 to 1000 nM |
